Source: paper PMC6271944 (Molecules, 2014)

How the values were obtained:
CYP2C19 = target: T1, CYP2C19 (Homo sapiens, UniProt P33261); test: CYP inhibition in human liver microsomes, substrate cocktail, LC-MS/MS (S-mephenytoin); type: in vitro ADME; conditions: metabolite 4-hydroxymephenytoin, 95% CI in brackets, read-out: IC50 for HLM, CYP2C19
T1 construct: Pooled human liver microsomes (HLM, LOT 32556) were purchased from BD Gentest Corporation; tissue BD Gentest Corporation LOT 32556; host or cells: pooled human liver microsomes
T1 sequence (P33261 whole entry): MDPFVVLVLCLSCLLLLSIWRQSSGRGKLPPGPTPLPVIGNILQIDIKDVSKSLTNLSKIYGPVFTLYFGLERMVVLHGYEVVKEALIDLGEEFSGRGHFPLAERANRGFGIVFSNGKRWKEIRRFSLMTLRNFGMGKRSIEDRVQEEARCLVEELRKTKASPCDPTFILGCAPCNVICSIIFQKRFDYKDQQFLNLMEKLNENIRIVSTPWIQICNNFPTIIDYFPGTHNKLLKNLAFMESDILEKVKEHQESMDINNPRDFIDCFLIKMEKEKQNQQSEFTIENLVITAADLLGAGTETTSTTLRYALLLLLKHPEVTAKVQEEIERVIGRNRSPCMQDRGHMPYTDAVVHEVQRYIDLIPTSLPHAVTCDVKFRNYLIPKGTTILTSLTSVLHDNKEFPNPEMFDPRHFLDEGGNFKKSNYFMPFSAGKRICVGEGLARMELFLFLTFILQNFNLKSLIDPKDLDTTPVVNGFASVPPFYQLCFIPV
Description: (§1) Positive controls (furafyline for CYP1A2, montelukast for CYP2C8, sulfaphenazole for CYP2C9, S-(+)-N-3-benzylnirvanol for CYP2C19, quinidine for CYP2D6, ketoconazole for CYP3A4) and specific substrates (phenacetin for CYP1A2, paclitaxel for CYP2C8, diclofenac for CYP2C9, S-mephenytoin for CYP2C19, dextromethorphan for CYP2D6, midazolam for CYP3A4) are consistent with our previous papers. The substrates were used at concentrations approximately equal to their respective Michaelis-Menten constant (Km) values: 10 μM phenacetin, 5 μM paclitaxel, 5 μM diclofenac, 200 μM S-mephenytoin, 5 μM dextromethorphan, and 2 μM midazolam. NADP^+ was added after a 15 min preincubation of all other components at 37 °C. After a given incubation time (30 min), the reactions were terminated by addition of 60 μL ice-cold acetonitrile containing gemfibrozil and buspirone as internal standards. Incubation samples were stored at −80 °C until used in liquid chromatography-tandem mass spectrometry (LC-MS/MS) analysis. The mixture was centrifuged at 3,500 rpm for 5 min. The supernatant was mixed with equal volume of a 1:1 mixture of methanol and water and 20 μL of the final mixture was used for LC-MS/ MS analysis. […]
(§2) The CYP inhibition potential were evaluated by measuring the formation of one or more metabolites of the test substrates. […]

P-gp = target: T2, P-gp (Homo sapiens, UniProt P08183); test: P-gp inhibition, calcein-AM fluorometry assay in WM-266-4 cells; type: cell-based; conditions: probe calcein-AM (1 μM), all six concentrations 4.1~1,000 μM, response relative to verapamil at 100 μM
T2 construct: host or cells: WM-266-4 human melanoma cells
T2 sequence (P08183 whole entry): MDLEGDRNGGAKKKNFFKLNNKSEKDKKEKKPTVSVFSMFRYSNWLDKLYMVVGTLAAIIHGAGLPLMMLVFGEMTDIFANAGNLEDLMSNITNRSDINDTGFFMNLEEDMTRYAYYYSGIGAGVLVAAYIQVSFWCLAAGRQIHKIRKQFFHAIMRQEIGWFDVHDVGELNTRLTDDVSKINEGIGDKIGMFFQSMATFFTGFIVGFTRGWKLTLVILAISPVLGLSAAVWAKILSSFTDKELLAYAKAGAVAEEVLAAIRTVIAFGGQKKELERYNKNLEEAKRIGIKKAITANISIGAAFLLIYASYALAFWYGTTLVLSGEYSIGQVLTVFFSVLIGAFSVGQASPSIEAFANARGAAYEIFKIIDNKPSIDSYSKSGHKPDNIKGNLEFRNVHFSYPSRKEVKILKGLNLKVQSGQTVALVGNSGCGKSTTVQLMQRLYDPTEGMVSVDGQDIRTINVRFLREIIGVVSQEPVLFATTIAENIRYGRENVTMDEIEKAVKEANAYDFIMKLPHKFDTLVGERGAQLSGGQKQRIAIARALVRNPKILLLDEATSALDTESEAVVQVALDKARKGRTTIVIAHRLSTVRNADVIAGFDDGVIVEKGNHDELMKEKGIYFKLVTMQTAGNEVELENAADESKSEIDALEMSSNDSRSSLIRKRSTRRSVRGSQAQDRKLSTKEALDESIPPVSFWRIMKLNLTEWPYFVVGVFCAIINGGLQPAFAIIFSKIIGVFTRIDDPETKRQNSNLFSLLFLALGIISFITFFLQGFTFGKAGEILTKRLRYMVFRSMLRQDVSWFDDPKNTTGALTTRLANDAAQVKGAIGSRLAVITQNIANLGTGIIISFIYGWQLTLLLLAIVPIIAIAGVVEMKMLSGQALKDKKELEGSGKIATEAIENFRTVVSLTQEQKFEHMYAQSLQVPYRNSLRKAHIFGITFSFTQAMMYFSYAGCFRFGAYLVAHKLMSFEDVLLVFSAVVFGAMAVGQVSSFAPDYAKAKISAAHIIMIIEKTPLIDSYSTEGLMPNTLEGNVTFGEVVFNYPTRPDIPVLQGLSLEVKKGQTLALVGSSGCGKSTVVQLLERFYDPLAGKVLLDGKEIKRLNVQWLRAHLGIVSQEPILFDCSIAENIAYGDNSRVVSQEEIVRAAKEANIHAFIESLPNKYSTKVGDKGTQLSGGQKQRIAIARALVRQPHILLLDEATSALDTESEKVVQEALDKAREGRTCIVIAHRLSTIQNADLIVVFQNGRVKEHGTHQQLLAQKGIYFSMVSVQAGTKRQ
Description: One vial of WM-266-4 cells was thawed and cultured in a 15 cm culture dish overnight. Cells were split the next day and transferred onto a clear bottom 96-well plate with 5.0 × 10^4 cells per well. […] Verapamil was used as a positive control at a concentration of 100 μM and 1% DMSO was used as a negative control. After 30 min of incubation time, calcein-AM diluted with 50 μL culture media without serum was added to a concentration of 1 μM and the sample was incubated for an additional 30 min. The plates were placed in the Flexstation II (Molecular Devices) and fluorescence was measured at excitation and emission wavelengths of 494 and 517 nm, respectively.
The P-gp inhibitor verapamil was used as positive control at a concentration of 100 μM. The experiment was considered valid if an increase in fluorescence greater than 5-fold was observed. For P-gp inhibition, a compound with a response less than 25% of verapamil at 100 μM is normally reported as “negative” at the tested concentration. The percent response value was used to determine and report the P-gp interaction at the tested concentration. A response equal to or greater than 25% of verapamil at 100 μM was considered to be “positive” at the tested concentration.

UGT1A6 = tested on: UGT1A6; parameters: dose or concentration left out as unconfirmed; conditions: cited from earlier work
CYP2C79 = test: CYP inhibition in rat liver microsomes, substrate cocktail, LC-MS/MS (S-mephenytoin); type: in vitro ADME; conditions: pH 7.4, probe S-mephenytoin 200 μM, 95% CI in brackets, read-out: IC50 for RLM, CYP2C79 (table row CYP2C19)
Description: as §1, §2

CYP1A2 = target: T3, CYP1A2 (Rattus norvegicus, UniProt P04799); test: CYP inhibition in rat liver microsomes, substrate cocktail, LC-MS/MS (phenacetin); type: in vitro ADME; parameters: Pooled rat liver microsomes were prepared from three male Sprague-Dawley rats; from tissue; host or cells: pooled liver microsomes of three male Sprague-Dawley rats, prepared at HD Biosciences Co; conditions: read-out: IC50 for RLM, CYP1A2
T3 sequence (P04799 1-513): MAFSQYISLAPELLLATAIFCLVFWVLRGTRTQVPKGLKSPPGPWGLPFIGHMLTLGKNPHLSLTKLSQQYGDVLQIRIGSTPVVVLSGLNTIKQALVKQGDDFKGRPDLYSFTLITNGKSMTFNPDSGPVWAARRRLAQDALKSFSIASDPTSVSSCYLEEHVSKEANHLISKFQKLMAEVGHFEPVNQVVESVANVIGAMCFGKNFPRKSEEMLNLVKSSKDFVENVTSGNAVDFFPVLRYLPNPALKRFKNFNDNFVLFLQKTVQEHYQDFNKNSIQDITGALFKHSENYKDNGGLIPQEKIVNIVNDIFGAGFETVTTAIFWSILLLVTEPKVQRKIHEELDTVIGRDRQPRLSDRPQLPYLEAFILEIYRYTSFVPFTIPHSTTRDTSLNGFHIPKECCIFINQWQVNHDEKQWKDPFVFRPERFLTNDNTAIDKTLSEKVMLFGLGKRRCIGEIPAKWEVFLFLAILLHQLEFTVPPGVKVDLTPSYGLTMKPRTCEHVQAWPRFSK
Description: as §1, §2

## O=C(O)[C@H]1O[C@@H](Oc2cc3oc(-c4ccc(O)cc4)cc(=O)c3c(O)c2O)[C@H](O)[C@@H](O)[C@@H]1O [scutellarin, Scutellarin]
CYP2C19
  IC50: 63.8 µM
P-gp
  inhibition at 60 min: < 25%
UGT1A6
  inhibition towards the activity of UGT1A6: 20.2%
CYP2C79
  IC50 at 30 min: 85.6 µM
CYP1A2
  IC50: > 100 µM
